From patent US20090264384A1, “INDOLE, BENZIMIDAZOLE, AND BENZOLACTAM BORONIC ACID COMPOUNDS, ANALOGS THEREOF AND METHODS OF USE THEREOF” (Nuada, Inc., priority 2004, published 2009) come the findings set out here.

One data set has as its target T1, MAO-B(h) (Homo sapiens, UniProt P27338).
T1 construct: human platelets; from tissue; host or cells: human platelets
It counts as biochemical. Particulars: 1.0E−05 M.

Another data set addresses T2, NK3(h) (Homo sapiens, UniProt P29371).
T2 construct: expressed in transfected cells; host or cells: CHO cells
Kind of data set: NK3(h) binding assay. Particulars: read-out: % Inhibition of Control Specific Binding.

The test system of another data set is TNF-α production by PMBC. Kind of data set: Inhibition of TNF-α Production By Peripheral Blood Monocyte Cells (PMBC), LPS stimulated. It counts as cell-based. To be noted: 1 ug/mL LPS, 24 hours. How it is done:
PMBC in RPMI 1640 Cell Culture Medium (containing 1% Penicillin and 1% Streptomycin) are aliquoted into 96-well plates at 5×10^5 cells/well and pre-incubated with test compounds for 30 minutes at 37° C. After incubation, 1 ug/mL LPS is added to each well to stimulate TNF-α production and the plate is incubated for 24 hours at 37° C. After incubation, the supernatant is removed and the TNF-α secreted is quantified using EIA detection kits commercially available from R&D Systems (USA). The results from this assay are expressed as percent inhibition of control activity, with the control being stimulated wells with no test compound. Dexamethasone is used as a standard reference compound in the assay and is tested with each experiment. All test compounds are diluted from 10 mM stock solutions in 100% DMSO.

Another data set deals with T3, Guanylyl cyclase (basal) (Bos taurus, UniProt P16068+P19687).
T3 construct: bovine lung; from tissue; host or cells: bovine lung
T3 sequence (P19687 whole entry): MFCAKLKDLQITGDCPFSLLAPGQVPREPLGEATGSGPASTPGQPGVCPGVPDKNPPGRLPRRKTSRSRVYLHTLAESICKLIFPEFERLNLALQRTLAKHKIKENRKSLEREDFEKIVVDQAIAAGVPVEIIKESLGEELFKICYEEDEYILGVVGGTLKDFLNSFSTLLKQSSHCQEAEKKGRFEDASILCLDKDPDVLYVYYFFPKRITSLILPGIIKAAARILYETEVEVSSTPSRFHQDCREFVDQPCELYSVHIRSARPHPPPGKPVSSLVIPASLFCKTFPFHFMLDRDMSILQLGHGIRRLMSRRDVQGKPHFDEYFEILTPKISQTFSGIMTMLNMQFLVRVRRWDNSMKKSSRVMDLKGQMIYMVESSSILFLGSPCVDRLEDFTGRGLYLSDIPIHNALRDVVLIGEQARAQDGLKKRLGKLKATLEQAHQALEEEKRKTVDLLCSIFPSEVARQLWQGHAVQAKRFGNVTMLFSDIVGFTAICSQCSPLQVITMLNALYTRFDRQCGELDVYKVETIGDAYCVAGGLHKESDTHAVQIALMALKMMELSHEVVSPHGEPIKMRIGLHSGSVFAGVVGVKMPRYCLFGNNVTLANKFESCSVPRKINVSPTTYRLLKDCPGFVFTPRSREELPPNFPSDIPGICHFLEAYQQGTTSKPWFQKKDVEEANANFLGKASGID
T3 sequence (P16068 whole entry): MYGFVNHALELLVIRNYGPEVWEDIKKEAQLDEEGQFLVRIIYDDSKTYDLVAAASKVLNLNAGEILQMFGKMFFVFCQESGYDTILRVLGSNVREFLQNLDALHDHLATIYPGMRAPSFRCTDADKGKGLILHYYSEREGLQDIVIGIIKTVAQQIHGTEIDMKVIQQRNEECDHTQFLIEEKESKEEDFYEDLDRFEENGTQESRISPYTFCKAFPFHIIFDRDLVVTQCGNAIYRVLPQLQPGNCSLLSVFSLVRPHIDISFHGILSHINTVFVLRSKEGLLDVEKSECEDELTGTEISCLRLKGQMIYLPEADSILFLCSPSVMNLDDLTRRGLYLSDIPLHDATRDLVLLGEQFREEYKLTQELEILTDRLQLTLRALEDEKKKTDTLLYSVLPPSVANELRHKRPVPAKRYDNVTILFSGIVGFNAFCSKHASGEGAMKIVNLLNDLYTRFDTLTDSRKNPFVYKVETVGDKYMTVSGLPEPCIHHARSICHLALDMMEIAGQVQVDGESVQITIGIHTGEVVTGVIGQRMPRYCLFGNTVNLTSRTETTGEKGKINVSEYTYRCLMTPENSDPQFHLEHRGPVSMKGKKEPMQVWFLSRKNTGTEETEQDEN
Kind of data set: Guanylyl cyclase (basal) enzyme assay. It counts as biochemical, bovine. To be noted: 1.0E−05 M.

For a further data set, the system named is I2 (central). Kind of data set: I2 (central) binding assay. More on the design: species or system rat. Particulars: 1.0E−05 M.
The next data set has as its target T4, Androgen(h) (AR) (Homo sapiens, UniProt P10275, T878A).
T4 construct: LNCaP cells; endogenous in cells; host or cells: LNCaP cells (cytosol)
Kind of data set: Androgen(h) (AR) binding assay. Particulars: 1.0E−05 M; read-out: % Inhibition of Control Specific Binding.

In a further data set the target is T5, V1a(h) (Homo sapiens, UniProt P37288).
T5 construct: expressed in transfected cells; host or cells: CHO cells
T5 sequence (P37288 whole entry): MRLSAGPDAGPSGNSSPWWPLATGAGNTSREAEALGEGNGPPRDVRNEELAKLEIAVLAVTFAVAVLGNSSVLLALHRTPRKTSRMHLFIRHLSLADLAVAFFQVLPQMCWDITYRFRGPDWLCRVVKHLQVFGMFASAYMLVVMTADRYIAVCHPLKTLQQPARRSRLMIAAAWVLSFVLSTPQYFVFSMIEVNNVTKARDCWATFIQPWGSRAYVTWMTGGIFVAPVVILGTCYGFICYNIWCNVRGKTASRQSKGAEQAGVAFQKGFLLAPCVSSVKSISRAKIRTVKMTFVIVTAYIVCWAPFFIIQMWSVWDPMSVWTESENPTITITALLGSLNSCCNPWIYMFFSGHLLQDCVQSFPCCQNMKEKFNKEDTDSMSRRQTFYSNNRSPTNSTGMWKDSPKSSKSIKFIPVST
Kind of data set: V1a(h) binding assay. Particulars: 1.0E−05 M; read-out: % Inhibition of Control Specific Binding.

The next data set addresses T6, K^+ATP channel (Rattus norvegicus, UniProt Q09429).
T6 construct: rat cerebral; from tissue; host or cells: rat cerebral cortex
Kind of data set: K^+ATP channel binding assay. To be noted: 1.0E−05 M; read-out: % Inhibition of Control Specific Binding.

A further data set addresses T7, B2(h) (Homo sapiens, UniProt P30411).
T7 construct: expressed in transfected cells; host or cells: CHO cells
Nature of the data set: B2(h) binding assay. To be noted: 1.0E−05 M; read-out: % Inhibition of Control Specific Binding.

In another data set the target is CYP2D6 (Homo sapiens, UniProt P10635). Nature of the data set: ADME-Tox: In vitro Metabolism (Cytochrome P450, fluorogenic substrates BFC, CEC, MFC). More on the design: inhibition: dose or concentration left out as unconfirmed. Particulars: human.
The target in another data set is CYP2C19 (Homo sapiens, UniProt P33261). The data set is described as above. Further details: inhibition: dose or concentration left out as unconfirmed. Particulars: human.
Chain of CYP2C19 (P33261 whole entry): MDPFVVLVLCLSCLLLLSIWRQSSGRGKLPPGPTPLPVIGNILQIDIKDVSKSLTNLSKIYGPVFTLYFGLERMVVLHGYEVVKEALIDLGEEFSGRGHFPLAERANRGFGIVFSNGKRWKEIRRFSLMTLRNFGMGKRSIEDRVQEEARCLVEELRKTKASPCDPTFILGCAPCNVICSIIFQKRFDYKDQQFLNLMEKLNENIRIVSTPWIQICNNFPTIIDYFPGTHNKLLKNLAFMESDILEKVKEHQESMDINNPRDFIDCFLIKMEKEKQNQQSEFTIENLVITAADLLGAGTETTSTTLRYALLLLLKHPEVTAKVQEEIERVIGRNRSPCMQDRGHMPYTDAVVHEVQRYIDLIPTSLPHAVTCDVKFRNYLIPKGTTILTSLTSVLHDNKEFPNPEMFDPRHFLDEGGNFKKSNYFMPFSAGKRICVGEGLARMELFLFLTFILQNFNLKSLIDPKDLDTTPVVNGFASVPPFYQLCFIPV
A further data set addresses CYP1A2 (Homo sapiens, UniProt P05177). The description is as above. Further details: inhibition: dose or concentration left out as unconfirmed. Particulars: human.
A further data set deals with CYP3A4 (Homo sapiens, UniProt P08684). The data set is described as above. Further details: inhibition: dose or concentration left out as unconfirmed. Particulars: human.
The test system of a further data set is Phosphodiesterase 1. Nature of the data set: Phosphodiesterase 1 enzyme assay. To be noted: 1.0E−05 M. The data set is classed as biochemical, bovine.
A further data set deals with T8, H2(h) (Homo sapiens, UniProt P25021).
T8 construct: expressed in transfected cells; host or cells: CHO cells
Kind of data set: H2(h) binding assay. To be noted: read-out: % Inhibition of Control Specific Binding.

In another data set the test system is σ (non-selective). Nature of the data set: σ (non-selective) binding assay. Further details: species or system rat. Particulars: 1.0E−05 M.
A further data set deals with T9, β2(h) (Homo sapiens, UniProt P07550).
T9 construct: expressed in transfected cells; host or cells: Sf9 cells
T9 sequence (P07550 whole entry): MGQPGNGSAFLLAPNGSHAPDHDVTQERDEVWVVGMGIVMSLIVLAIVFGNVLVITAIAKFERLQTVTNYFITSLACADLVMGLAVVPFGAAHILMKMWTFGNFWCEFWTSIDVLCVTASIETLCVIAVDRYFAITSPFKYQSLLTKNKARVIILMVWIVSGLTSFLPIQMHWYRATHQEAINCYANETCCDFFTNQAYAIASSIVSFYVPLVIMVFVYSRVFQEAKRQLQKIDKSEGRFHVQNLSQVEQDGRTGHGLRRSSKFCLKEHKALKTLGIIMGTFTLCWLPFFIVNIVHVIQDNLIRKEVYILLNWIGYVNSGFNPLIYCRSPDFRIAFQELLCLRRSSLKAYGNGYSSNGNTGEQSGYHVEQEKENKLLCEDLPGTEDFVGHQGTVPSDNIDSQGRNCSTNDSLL
Nature of the data set: β2(h) binding assay. To be noted: read-out: % Inhibition of Control Specific Binding.

The next data set has as its target T10, CCKA(h) (CCK1) (Homo sapiens, UniProt P32238).
T10 construct: expressed in transfected cells; host or cells: CHO cells
Kind of data set: CCKA(h) (CCK1) binding assay. To be noted: read-out: % Inhibition of Control Specific Binding.

The next data set addresses T11, CB1(h) (Homo sapiens, UniProt P21554).
T11 construct: expressed in transfected cells; host or cells: HEK-293 cells
Nature of the data set: CB1(h) binding assay. To be noted: 1.0E−05 M; read-out: % Inhibition of Control Specific Binding.

Another data set concerns the target T12, GABA transaminase (Rattus norvegicus, UniProt P50554).
T12 construct: rat brain; from tissue; host or cells: rat brain
Kind of data set: GABA transaminase enzyme assay. The data set is classed as biochemical. To be noted: 1.0E−05 M.

The subject of a further data set is 5-HT (non-selective). Nature of the data set: 5-HT (non-selective) binding assay. Further details: species or system rat. To be noted: 1.0E−05 M.
A further data set has as its target T13, Tyrosine hydroxylase (Rattus norvegicus, UniProt P04177).
T13 construct: rat striatum; from tissue; host or cells: rat striatum
Kind of data set: Tyrosine hydroxylase enzyme assay. It counts as biochemical. Particulars: 1.0E−05 M.

For a further data set, the system named is P2X. Nature of the data set: P2X binding assay. More on the design: species or system rat. Particulars: 1.0E−05 M.
The next data set has as its target T14, Choline transporter (Rattus norvegicus, UniProt Q9JMD7).
T14 construct: rat striatum; from tissue; host or cells: rat striatum
T14 sequence (Q9JMD7 1-580): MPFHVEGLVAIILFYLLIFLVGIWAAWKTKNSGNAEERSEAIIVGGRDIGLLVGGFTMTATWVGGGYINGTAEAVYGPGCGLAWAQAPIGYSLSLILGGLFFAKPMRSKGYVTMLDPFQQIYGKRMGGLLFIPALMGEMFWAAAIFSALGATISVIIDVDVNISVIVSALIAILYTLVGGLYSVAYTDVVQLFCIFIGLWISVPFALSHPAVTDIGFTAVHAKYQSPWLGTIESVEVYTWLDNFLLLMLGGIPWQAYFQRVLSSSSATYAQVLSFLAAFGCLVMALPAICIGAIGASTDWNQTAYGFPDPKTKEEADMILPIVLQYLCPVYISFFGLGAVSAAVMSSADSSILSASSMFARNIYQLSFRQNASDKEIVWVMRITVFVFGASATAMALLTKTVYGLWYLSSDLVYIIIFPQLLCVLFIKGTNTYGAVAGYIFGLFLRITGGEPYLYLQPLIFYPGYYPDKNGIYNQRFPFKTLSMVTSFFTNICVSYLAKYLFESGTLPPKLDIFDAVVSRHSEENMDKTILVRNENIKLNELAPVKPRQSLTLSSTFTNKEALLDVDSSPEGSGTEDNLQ
Kind of data set: Choline transporter binding assay. Particulars: 1.0E−05 M; read-out: % Inhibition of Control Specific Binding.

T4 sequence (P10275 whole entry T878A): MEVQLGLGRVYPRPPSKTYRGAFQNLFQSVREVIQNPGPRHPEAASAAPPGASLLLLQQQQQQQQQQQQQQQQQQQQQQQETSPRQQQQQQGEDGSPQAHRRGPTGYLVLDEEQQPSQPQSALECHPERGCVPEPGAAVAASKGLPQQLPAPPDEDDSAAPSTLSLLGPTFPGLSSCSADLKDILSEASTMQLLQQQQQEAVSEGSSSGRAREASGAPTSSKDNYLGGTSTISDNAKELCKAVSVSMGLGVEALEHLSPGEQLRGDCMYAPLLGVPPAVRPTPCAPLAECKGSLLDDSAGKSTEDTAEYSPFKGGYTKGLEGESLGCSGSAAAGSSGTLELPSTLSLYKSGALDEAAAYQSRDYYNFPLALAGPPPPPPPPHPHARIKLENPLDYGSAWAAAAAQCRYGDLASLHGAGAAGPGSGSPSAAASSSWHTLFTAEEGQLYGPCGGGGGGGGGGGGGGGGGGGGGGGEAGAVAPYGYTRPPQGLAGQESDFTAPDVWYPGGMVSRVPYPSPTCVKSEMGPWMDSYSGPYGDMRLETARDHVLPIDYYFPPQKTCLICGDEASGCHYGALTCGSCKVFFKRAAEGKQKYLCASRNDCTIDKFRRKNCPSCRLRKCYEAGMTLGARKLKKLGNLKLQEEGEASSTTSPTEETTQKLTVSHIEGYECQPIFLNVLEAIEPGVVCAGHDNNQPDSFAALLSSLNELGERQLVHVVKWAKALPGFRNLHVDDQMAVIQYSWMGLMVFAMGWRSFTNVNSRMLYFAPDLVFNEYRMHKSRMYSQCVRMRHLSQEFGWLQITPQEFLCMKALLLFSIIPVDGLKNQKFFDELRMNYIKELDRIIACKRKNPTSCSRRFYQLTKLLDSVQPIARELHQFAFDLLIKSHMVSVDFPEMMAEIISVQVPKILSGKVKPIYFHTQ
T1 sequence (P27338 whole entry): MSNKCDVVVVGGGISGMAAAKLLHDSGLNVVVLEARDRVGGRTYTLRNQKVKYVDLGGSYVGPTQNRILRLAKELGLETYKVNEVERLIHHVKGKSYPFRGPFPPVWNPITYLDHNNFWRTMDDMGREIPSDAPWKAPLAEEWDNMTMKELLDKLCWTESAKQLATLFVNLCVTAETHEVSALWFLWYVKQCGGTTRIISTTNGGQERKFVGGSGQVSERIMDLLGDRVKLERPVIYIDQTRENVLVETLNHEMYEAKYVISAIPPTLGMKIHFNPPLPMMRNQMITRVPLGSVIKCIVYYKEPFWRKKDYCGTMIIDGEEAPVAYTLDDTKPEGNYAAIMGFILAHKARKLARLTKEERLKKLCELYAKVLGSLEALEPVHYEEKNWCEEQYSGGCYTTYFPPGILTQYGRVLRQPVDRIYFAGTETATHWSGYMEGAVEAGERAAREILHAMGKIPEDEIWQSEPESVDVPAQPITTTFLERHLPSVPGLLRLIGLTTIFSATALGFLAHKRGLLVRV
T10 sequence (P32238 whole entry): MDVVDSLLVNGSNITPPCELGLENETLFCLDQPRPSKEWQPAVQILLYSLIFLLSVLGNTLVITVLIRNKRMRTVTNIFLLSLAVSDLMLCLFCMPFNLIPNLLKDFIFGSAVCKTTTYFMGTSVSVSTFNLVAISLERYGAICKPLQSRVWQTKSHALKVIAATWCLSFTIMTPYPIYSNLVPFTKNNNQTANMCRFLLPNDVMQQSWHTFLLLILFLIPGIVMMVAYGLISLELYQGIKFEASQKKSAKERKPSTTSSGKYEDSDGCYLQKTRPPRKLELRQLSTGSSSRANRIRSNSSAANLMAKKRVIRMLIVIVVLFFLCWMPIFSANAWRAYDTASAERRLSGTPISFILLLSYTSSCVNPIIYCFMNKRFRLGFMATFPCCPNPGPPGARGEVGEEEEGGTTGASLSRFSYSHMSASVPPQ
T13 sequence (P04177 whole entry): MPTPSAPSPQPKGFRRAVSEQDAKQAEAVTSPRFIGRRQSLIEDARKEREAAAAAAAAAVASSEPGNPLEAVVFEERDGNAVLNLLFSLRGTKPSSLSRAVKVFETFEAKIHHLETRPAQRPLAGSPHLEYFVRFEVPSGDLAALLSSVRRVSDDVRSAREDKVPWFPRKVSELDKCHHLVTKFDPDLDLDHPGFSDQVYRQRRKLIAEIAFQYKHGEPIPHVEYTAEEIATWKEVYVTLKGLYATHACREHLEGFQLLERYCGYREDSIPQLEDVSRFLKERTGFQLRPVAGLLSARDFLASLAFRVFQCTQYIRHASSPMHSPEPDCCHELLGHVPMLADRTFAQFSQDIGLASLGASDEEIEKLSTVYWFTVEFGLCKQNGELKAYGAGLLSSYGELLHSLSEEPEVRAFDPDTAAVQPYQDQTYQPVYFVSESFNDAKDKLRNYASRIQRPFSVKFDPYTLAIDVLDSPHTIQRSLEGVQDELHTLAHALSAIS

For `N#Cc1ccc2c(ccn2CCCCCB(O)O)c1` [Example 20, 5-(5-cyano-1H-indol-1-yl)pentylboronic acid], the “% Inhibition of Control Values” on MAO-B(h) is −8%; with Phosphodiesterase 1 it was 7%; at GABA transaminase, −2%; on Tyrosine hydroxylase it was 4%. Moreover, the inhibition (in general, the drop in the measured response relative to a control, in per cent) at 10 µM at NK3(h) amounted to 3%; on Androgen(h) (AR), 40%; on V1a(h), 24%; at K^+ATP channel, 25%; at B2(h), 18%; on H2(h), 15%. The inhibition at 10 µM at β2(h) is 5%; at CCKA(h) (CCK1), 7%; at CB1(h), -2%; on Choline transporter, 1%. Also, the IC50 (as a rule, the concentration needed to halve the response being measured) in the data set with TNF-α production by PMBC was determined as 0.75 µM. The “% Stimulation Relative to Control” value on Guanylyl cyclase (basal) came to 0%. Also, the “% Inhibition of Control Specific Binding” value in the data set on I2 (central) is 1%; in the data set with σ (non-selective) it was 5%; with 5-HT (non-selective), −1%; in the data set with P2X it was 14%. The inhibition came to 42% against CYP2D6, 52% at CYP2C19, 40% on CYP1A2 and 97% against CYP3A4.
